Assay results published in US20060040917A1, “Benzoxazepine derivatives as selective estrogen receptor modulators” (priority 2004, published 2006).

Key:
[1] = molecular target: T1, human estrogen receptor α (Homo sapiens, UniProt P03372); assay: Estrogen Receptor α Flash Plate Assay; conditions: displacement of radio-labeled estrogen (0.5 nM), FlashPlate, 1 h room temperature; read-out: ERα Binding IC50
T1 construct: purchased Panvera
T1 sequence (P03372 1-595): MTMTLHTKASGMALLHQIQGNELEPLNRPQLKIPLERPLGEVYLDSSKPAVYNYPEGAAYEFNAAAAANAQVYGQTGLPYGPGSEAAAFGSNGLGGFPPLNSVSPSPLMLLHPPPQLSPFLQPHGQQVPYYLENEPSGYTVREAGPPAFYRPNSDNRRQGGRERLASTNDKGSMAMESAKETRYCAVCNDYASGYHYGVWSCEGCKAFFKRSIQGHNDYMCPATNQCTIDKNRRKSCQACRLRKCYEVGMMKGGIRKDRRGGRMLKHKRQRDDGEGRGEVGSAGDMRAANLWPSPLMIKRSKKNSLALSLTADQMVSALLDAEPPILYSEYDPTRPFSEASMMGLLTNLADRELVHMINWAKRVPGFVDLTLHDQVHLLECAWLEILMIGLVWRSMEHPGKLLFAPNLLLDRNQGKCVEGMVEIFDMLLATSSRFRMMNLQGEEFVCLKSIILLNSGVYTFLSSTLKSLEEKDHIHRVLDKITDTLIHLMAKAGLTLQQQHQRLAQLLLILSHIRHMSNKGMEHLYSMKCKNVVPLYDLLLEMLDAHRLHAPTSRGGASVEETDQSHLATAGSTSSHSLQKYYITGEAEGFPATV
Procedure: Estrogen Receptor α Flash Plate Assay
This assay monitors binding of radio-labeled estrogen to the estrogen receptor. It is performed on a BioMek 2000 (Beckman). Plates are read in a scintillation counter (Packard TopCount), with decreased counts an indication of binding of a compound to the receptor. The assay was run according to the procedure described by Allan, et al., Anal. Biochem. (1999), 275(2), 243-247.
On day one, 100 μL of Estrogen Screening Buffer (ESB, Panvera) containing 5 mM dithiothreitol (DTT, Panvera), 0.5 μg mouse anti-estrogen receptor monoclonal antibody (SRA-1010, Stressgen) and 50 ng purified human estrogen receptor α (Panvera) were added to each well of a 96 well FlashPlate Plus plate crosslinked with goat anti-mouse antibodies (NEN Life Sciences). The plate was sealed and incubated at 4° C. overnight.
On day two, each well was washed three times with 200 μL PBS, pH 7.2, at room temperature. To each well was then added 98 μL radio-labeled estrogen (0.5 nM, which equals 6 nCi for a 120 Ci/mmol batch, Amersham), diluted in ESB and 5 mM dithiothreitol (DTT). To individual wells were then added 2.5 μL test compound diluted in 30% (v/v) dimethyl sulfoxide/50 mM HEPES, pH 7.5. The wells were mixed three times by aspiration, the plate sealed and incubated at room temperature for one hour. The wells were then counted for 1 min in a TopCount scintillation counter (Packard).
(§1) Representative compound of the present invention were tested according to the procedure described above for binding to the Estrogen Receptor a and Estrogen Receptor β, with results as listed in Table 6.

hER-β = molecular target: T2, hER-β (Homo sapiens, UniProt Q92731); assay: Estrogen Receptor β Fluorescence Polarization Assay; conditions: displacement of Fluormone ES2, fluorescence polarization, 1 h room temperature; read-out: ERβ Binding IC50
T2 construct: purchased Panvera
T2 sequence (Q92731 whole entry): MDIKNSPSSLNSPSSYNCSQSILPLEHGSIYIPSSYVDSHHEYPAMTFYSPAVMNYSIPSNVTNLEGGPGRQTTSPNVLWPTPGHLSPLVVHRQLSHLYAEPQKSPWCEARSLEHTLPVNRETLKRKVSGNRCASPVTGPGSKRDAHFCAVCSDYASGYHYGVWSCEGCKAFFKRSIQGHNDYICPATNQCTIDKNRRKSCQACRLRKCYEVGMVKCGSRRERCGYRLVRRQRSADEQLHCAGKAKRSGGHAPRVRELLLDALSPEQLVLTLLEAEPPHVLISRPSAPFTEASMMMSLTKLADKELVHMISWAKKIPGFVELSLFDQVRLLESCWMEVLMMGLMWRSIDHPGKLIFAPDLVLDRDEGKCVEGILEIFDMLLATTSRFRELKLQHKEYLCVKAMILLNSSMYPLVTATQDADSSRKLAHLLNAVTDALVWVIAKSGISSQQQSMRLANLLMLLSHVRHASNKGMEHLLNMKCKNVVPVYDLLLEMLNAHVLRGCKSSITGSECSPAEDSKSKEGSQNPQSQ
From the text: Estrogen Receptor β Fluorescence Polarization Assay
This assay monitors binding of a fluorescent analog of estrogen (Fluormone ES2, Panvera) to the estrogen receptor. Plates are read in a fluorometer that can be set to polarization mode. A decrease in […] relative to vehicle control is an indication of binding of a compound to the receptor.
It is crucial to avoid introduction of air bubbles into the reaction in each well of the 96 well plate throughout this procedure. (Bubbles on the surface of the reaction disrupt light flow, affecting the polarization reading.) However, it is also crucial to effectively mix the reaction components upon addition to the well.
On ice, a 2× standard mixture of Assay Buffer (Panvera), 10 nM DTT and 40 nM ES2 was prepared. On ice, a 2× reaction mixture of Assay Buffer (Panvera), and 20 nM hER-β (Panvera) and 40 nM ES2 was also prepared.
Dilutions of test compound were prepared in 30% (v/v) dimethyl sulfoxide/50 mM HEPES, pH 7.5. At this point, the dilutions were 40× the final required concentration.
The standard mixture at 50 μL was then added to each well. The reaction mixture at 48 μL was added to all wells. The compound dilution at 2.5 μL was added to the appropriate wells. The reaction mixtures were mixed using a manual pipette, a roll of aluminum foil adhesive cover was placed on the plate and the plate incubated at room temperature for 1 hour.
Each well on the plate was then read in an LjL Analyst with an excitation wavelength of […] and an emission wavelength of 538.
as §1

| SMILES | IC50 [1] | IC50 (hER-β) |
| --- | --- | --- |
| COCOc1ccc(C2COc3cc(OCOC)ccc3N(Cc3cccc(OCCCl)c3)C2)cc1 (centres unmarked) [Compound 19, 9-[3-(2-Chloro-ethoxy)-benzyl]-3-methoxymethoxy-7-(4-methoxymethoxy-phenyl)-6,7,8,9-tetrahydro-5-oxa-9-aza-benzocycloheptene] | > 1000 nM | > 1000 nM |
| CC(C)(C)C(=O)Oc1ccc(C2COc3cc(OC(=O)C(C)(C)C)ccc3N(Cc3cccc(OCCN4CCCCC4)c3)C2)cc1 (centres unmarked) [Compound 26] | > 1000 nM | > 1000 nM |
| CN(C)CCOc1ccc(C(=O)N2CC(c3cccc(O)c3)COc3cc(O)ccc32)cc1 (centres unmarked) [Compound 9] | 530 nM | 26000 nM |
| COCOc1ccc(C2COc3cc(OCOC)ccc3N(Cc3cccc(OCCN4CCCCC4)c3)C2)cc1 (centres unmarked) [Compound 20, 3-Methoxymethoxy-7-(4-methoxymethoxy-phenyl)-9-[3-(2-piperidin-1-yl-ethoxy)-benzyl]-6,7,8,9-tetrahydro-5-oxa-9-aza-benzocycloheptene] | > 1000 nM | > 1000 nM |
| Oc1ccc(C2COc3cc(O)ccc3N(Cc3ccc(OCCN4CCCCC4)cc3)C2)cc1 (centres unmarked) [Compound 12, 7-(4-Hydroxy-phenyl)-9-[4-(2-piperidin-1-yl-ethoxy)-benzyl]-6,7,8,9-tetrahydro-5-oxa-9-aza-benzocyclohepten-3-ol] | 430 nM | 1100 nM |
| CC(=O)Oc1cccc(C2COc3cc(OC(C)=O)ccc3N(C(=O)c3ccc(OCCCl)cc3)C2)c1 (centres unmarked) [Compound 15] | 100 nM | 2600 nM |
| COCOc1ccc(C2COc3cc(OCOC)ccc3N(Cc3cccc(OCCN4CCOCC4)c3)C2)cc1 (centres unmarked) [Compound 21] | > 1000 nM | > 1000 nM |
| CC(=O)Oc1cccc(C2COc3cc(OC(C)=O)ccc3N(Cc3ccc(OCCN4CCCCC4)cc3)C2)c1 (centres unmarked) [Compound 16] | 120 nM | 670 nM |
| COc1cccc(C2COc3cc(OC)ccc3N(C(=O)c3ccc(OCCN(C)C)cc3)C2)c1 (centres unmarked) [Compound 8] | 2900 nM | > 100000 nM |
| Oc1ccc(C2COc3cc(O)ccc3N(Cc3cccc(OCCN4CCOCC4)c3)C2)cc1 (centres unmarked) [Compound 23] | 350 nM | 870 nM |

Compounds with a lower IC50 [1], results first:

| IC50 [1] | IC50 (hER-β) | SMILES |
| --- | --- | --- |
| 81 nM | 2600 nM | O=C(c1cccc(OCCN2CCCCC2)c1)N1CC(c2cccc(O)c2)COc2cc(O)ccc21 (centres unmarked) [Compound 13, [3-Hydroxy-7-(3-hydroxy-phenyl)-7,8-dihydro-6H-5-oxa-9-aza-benzocyclohepten-9-yl]-[3-(2-piperidin-1-yl-ethoxy)-phenyl]-methanone] |
| 56 nM | 92 nM | Oc1cccc(C2COc3cc(O)ccc3N(Cc3cccc(OCCCl)c3)C2)c1 (centres unmarked) [Compound 24] |
| 22 nM | 300 nM | Oc1cccc(C2COc3cc(O)ccc3N(Cc3cccc(OCCN4CCCCC4)c3)C2)c1 (centres unmarked) [Compound 25] |
| 52 nM | 560 nM | Oc1ccc(C2COc3cc(O)ccc3N(Cc3cccc(OCCN4CCCCC4)c3)C2)cc1 (centres unmarked) [Compound 22, 7-(4-Hydroxy-phenyl)-9-[3-(2-piperidin-1-yl-ethoxy)-benzyl]-6,7,8,9-tetrahydro-5-oxa-9-aza-benzocyclohepten-3-ol] |
| 24 nM | 1100 nM | O=C(c1ccc(OCCCl)cc1)N1CC(c2cccc(O)c2)COc2cc(O)ccc21 (centres unmarked) [Compound 14] |
| 66 nM | 88 nM | Oc1ccc(C2COc3cc(O)ccc3N(Cc3cccc(OCCCl)c3)C2)cc1 (centres unmarked) [Compound 18, 9-[3-(2-Chloro-ethoxy)-benzyl]-7-(4-hydroxy-phenyl)-6,7,8,9-tetrahydro-5-oxa-9-aza-benzocyclohepten-3-ol] |
